Measurements: US12054497B2, “Substituted heterocyclic fused cyclic compound, preparation method therefor and pharmaceutical use thereof” (GENFLEET THERAPEUTICS (SHANGHAI) INC., priority 2019, dated 2024)
Where two headings read alike, the source gives them in different places.

Columns and labels:
[1] = tested on: MIA PaCa-2 cells with Kras G12C mutation; test: Cell proliferation inhibition experiment, 3D spheroid, CellTiter-Glo (Test Example 3); assay type: cell-based, human; settings: 5 days, read-out: MIA-PaCa2 IC50
Outline: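 MIA PaCa-2 spheroids (200 cells/well) were formed overnight, then exposed for 5 days to compounds in 3.16-fold dilutions at 0.1% DMSO. Viability was read by CellTiter-Glo luminescence, and inhibition was normalised to DMSO control and medium blank. IC50 came from a four-parameter fit.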

[2] = tested on: NCI-H358 cells with Kras G12C mutation; test: Cell proliferation inhibition experiment, 3D spheroid, CellTiter-Glo (Test Example 1); assay type: cell-based, human; settings: 5 days
Outline: (§1)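 NCI-H358 (800 cells/well) and A549 (400 cells/well) grown overnight as 3D spheroids in 2% FBS medium, then exposed to compound dilution series (3.16-fold, 0.1% DMSO) for 5 days. CellTiter-Glo luminescence read; inhibition relative to DMSO and blank, IC50 by four-parameter fit.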

[3] = tested on: A549 cells with Kras G12S mutation; test: as above; assay type: cell-based, human; settings: 5 days
Outline: as §1

[4] = tested on: phosphorylated ERK in MIA PaCa2 cells with Kras G12C mutation; test: p-ERK HTRF assay for cells (Test Example 2); assay type: cell-based, human
Outline: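 MIA PaCa2 cells (2.5E4/well, seeded overnight) treated 2 h with compound in a 3.16-fold series at 0.1% DMSO. Cells lysed 30 min; p-ERK read by HTRF after 4 h antibody incubation. Inhibition relative to DMSO and blank; IC50 by four-parameter fit.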

KRas G12C = KRas G12C (Homo sapiens (Human), UniProt P01116, G12C); test: Nucleotide exchange assay (NEA)-HTRF, SOS1 catalyzed displacement of GDP by GTP (Test Example 4); assay type: biochemical
Description: The effects of compounds on SOS1 catalyzed displacement of GDP by GTP on KRas proteins was examined by homogeneous time-resolved fluorescence (HTRF). 30 μM 6×his labeled KRas G12C recombinant protein and 80 μM fluorochrome DY647 labeled GDP were co-incubated in a labeling buffer (1 mM DTT, 7.5 mM EDTA, 25 mM Tris-HCl, 45 mM NaCl) at 20° C. away from light for 2 hours. Protein quantification was performed after purification on the NAP-5 column to determine the concentration of KRas G12C-GDP.
1000× stock solutions of compounds at a concentration gradient of 3.16 were prepared by using DMSO, and diluted 250 times by a reaction buffer (40 mM N-2-hydroxyethylpiperazine-N-2-ethane sulfonic acid (HEPES), 10 mM MgCl2, 1 mM DTT, 0.002% Triton X-100) into 4× stock solutions of compounds. KRas G12C-GDP/Tb working solution (40 nM KRas G12C-GDP, 1×anti-his Tb) and SOS1/GTP working solution (0.2 μM SOS1, 200 μM GTP) were prepared by using the reaction buffer.
5 μl of 4×stock solution of a compound and 10 μl of KRas G12C-GDP/T working solution were added to each well of 96-well plate with white unclear bottom, and 5 μl of reaction buffer was added to the well of control group in stead of the 4×stock solution of a compound. After incubation at 20° C. away from light for 15 minutes, 5 μl of SOS1/GTP working solution was added and incubated at 20° C. away from light for 2 hours, and then a value of fluorescence intensity was read (excitation wavelength: 320 nm, and emission wavelengths: 615 nm and 665 nm). Besides, group TO was established with 10 μl of the reaction buffer and 10 μl of the KRas G12C-GDP/Tb working solution, and the value of fluorescence intensity was directly read. A relative light unit (RLU) was calculated by the following equation: RLU=(665 nm signal/615 nm signal)×10^4; and the inhibition rate (IR) of the compound was calculated by the following equation: IR (%)=(RLUcompound−RLUcontrol)/(RLUT0−RLUcontrol)×100%. The value of IC50 was calculated by fitting a gradiently diluted concentration of the compound and the corresponding cell proliferation inhibition rate using a four-parameter method.

[5] = MIA PaCa2 cells, 2 hours with compound, read-out: p-ERK IC50
[6] = Homo sapiens, MIA PaCa-2, 120 h
[7] = Homo sapiens, MIA PaCa-2, 2 h, MIA PaCa2 cells, 2 hours with compound, read-out: p-ERK IC50
[8] = Homo sapiens, MIA PaCa-2, 2 h, read-out: p-ERK IC50, MIA PaCa2 cells, 2 hours with compound

KRas G12C, sequence (P01116-2 other isoform, or with tags, fused parts or gaps G12C): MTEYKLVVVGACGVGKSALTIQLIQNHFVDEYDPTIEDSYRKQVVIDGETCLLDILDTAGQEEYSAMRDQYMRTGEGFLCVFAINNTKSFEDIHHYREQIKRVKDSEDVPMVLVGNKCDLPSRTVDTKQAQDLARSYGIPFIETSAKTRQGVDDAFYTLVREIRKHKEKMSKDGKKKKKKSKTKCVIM

Row | Structure (SMILES) | IC50 [1] | IC50 [2] | IC50 [3] | IC50 [4, 5] | IC50 (KRas G12C) | IC50 [1, 6] | IC50 [4, 7] | IC50 ([3]; Homo sapiens, A549, 120 h) | IC50 ([2]; Homo sapiens, NCI-H358, 120 h) | IC50 ([1]; Homo sapiens, 120 h) | IC50 [4, 8]
1 | C=CC(=O)N1C[C@@H]2C(=O)N(C)c3c(c4cc(F)c(-c5c(O)cccc5F)nc4n(-c4c(C#N)cccc4C(C)C)c3=O)N2C[C@H]1C (atropisomer, axis not shown) [Compound Z38-1, 2-((2R,4aR)-3-acryloyl-11-fluoro-10-(2-fluoro-6-hydroxyphenyl)-2,6-dimethyl-5,7-dioxo-2,3,4,4a,5,6-hexahydro-1H-pyrazino[1′,2′:4,5]pyrazino[2,3-c][1,8]naphthyridin-8(7H)-yl)-3-isopropylbenzonitrile] | 27 nM | 7 nM | > 30000 nM | 212 nM | 53 nM |  |  |  |  |  | 
2 | C=CC(=O)N1CCN2c3c(c(=O)n(-c4c(C)ccnc4C(C)C)c4nc(-c5c(O)cccc5F)c(F)cc34)OC[C@H]2C1 (single isomer, unassigned) [Compound Z1-1] |  | 31 nM | 10700 nM |  | 152 nM | 95 nM | 512 nM |  |  |  | 
3 | C=CC(=O)N1C[C@@H]2C(=O)N(C)c3c(c4cc(F)c(-c5c(O)cccc5F)nc4n(-c4c(C)ccnc4C(C)C)c3=O)N2C[C@H]1C (single isomer, unassigned) [Compound Z10-1] |  | 70 nM | > 10000 nM | 460 nM | 708 nM |  |  |  |  |  | 
4 | C=CC(=O)N1CCN2c3c(c(=O)n(-c4c(C)ncnc4C(C)C)c4nc(-c5c(O)cccc5F)c(F)cc34)N(C)C(=O)[C@H]2C1 (single isomer, unassigned) [Compound Z21-1] | 46 nM | 27 nM | > 30000 nM | 428 nM | 172 nM |  |  |  |  |  | 
5 | C=CC(=O)N1CCN2c3c(c(=O)n(-c4c(C)ccnc4C(C)C)c4nc(-c5c(O)cccc5F)c(Cl)cc34)NC(=O)[C@H]2C1 (single isomer, unassigned) [Compound Z24-1] |  | 28 nM | > 30000 nM | 536 nM | 291 nM |  |  |  |  |  | 
6 | C=CC(=O)N1CCN2c3c(c(=O)n(-c4c(C)ccnc4C(C)C)c4nc(-c5c(O)cccc5F)c(Cl)cc34)NC(=O)[C@H]2C1 (single isomer, unassigned) [Compound Z24-2] |  | 3 nM | 11300 nM | 61 nM | 38 nM | 4 nM |  |  |  |  | 
7 | C=CC(=O)N1C[C@@H]2C(=O)N(C)c3c(c4cc(Cl)c(-c5c(O)cccc5F)nc4n(-c4c(C)ccnc4C(C)C)c3=O)N2C[C@H]1C (single isomer, unassigned) [Compound Z27-1] |  | 12 nM |  | 157 nM | 198 nM |  |  | 12700 nM |  |  | 
8 | C=CC(=O)N1C[C@@H]2C(=O)N(C)c3c(c4cc(F)c(-c5c(O)cccc5F)nc4n(-c4c(C)cnn4C(C)C)c3=O)N2C[C@H]1C (single isomer, unassigned) [Compound Z33-1] |  | 74 nM | > 30000 nM |  | 515 nM | 92 nM |  |  |  |  | 
9 | C=CC(=O)N1C[C@@H]2C(=O)N(C)c3c(c4cc(F)c(-c5c(O)cccc5F)nc4n(-c4c(C)cnn4C(C)C)c3=O)N2C[C@H]1C (single isomer, unassigned) [Compound Z33-2] | 48 nM | 34 nM |  |  | 162 nM |  | 238 nM | > 30000 nM |  |  | 
10 | C=CC(=O)N1C[C@@H]2C(=O)N(C)c3c(c4cc(Cl)c(-c5c(O)cccc5F)c(F)c4n(-c4c(C(C)C)ncnc4C(C)C)c3=O)N2C[C@H]1C (single isomer, unassigned) [Compound Z50-1] |  | 0.3 nM | > 30000 nM | 6 nM | 8 nM | 1 nM |  |  |  |  | 
11 | C=CC(=O)N1C[C@@H]2C(=O)N(C)c3c(c4cc(Cl)c(-c5c(O)cccc5F)c(F)c4n(-c4c(C(C)C)ncnc4C(C)C)c3=O)N2C[C@H]1C (single isomer, unassigned) [Compound Z50-2] |  | 320 nM | 3870 nM | 316 nM | 1450 nM |  |  |  |  |  | 
12 | C=CC(=O)N1C[C@@H]2C(=O)N(C)c3c(c4cc(F)c(-c5c(O)cccc5F)nc4n(-c4c(C)ccnc4C(C)C)c3=O)N2C[C@H]1C [Compound Z10, (2R,4aR)-3-acryloyl-11-fluoro-10-(2-fluoro-6-hydroxyphenyl)-8-(2-isopropyl-4-methylpyridin-3-yl)-2,6-dimethyl-2,3,4,4a,6-hexahydro-1H-pyrazino[1′,2′:4,5]pyrazino[2,3-c][1,8,8]naphthyridin-5-dione] |  |  |  |  | 67 nM |  | 75 nM | 12100 nM | 8 nM |  | 
13 | C=CC(=O)N1CCN2c3c(c(=O)n(-c4c(C)ncnc4C(C)C)c4nc(-c5c(O)cccc5F)c(F)cc34)N(C)C(=O)[C@H]2C1 [Compound Z21, (4aR)-3-acryloyl-11-fluoro-10-(2-fluoro-6-hydroxyphenyl)-8-(4-isopropyl-6-methylpyrimidin-5-yl)-6-methyl-2,3,4,4a,6,8-hexahydro-1H-pyrazino[1′,2′:4,5]pyrazino[2,3-c][1,8]naphthyridin-5,7-dione] |  |  |  |  | 388 nM | 47 nM | 271 nM | > 30000 nM | 23 nM |  | 
14 | C=CC(=O)N1CCN2c3c(c(=O)n(-c4c(C)ccnc4C(C)C)c4nc(-c5c(O)cccc5F)c(Cl)cc34)NC(=O)[C@H]2C1 [Compound Z24, (4aR)-3-acryloyl-11-chloro-10-(2-fluoro-6-hydroxyphenyl)-8-(2-isopropyl-4-methylpyridin-3-yl)-2,3,4,4a,6,8-hexahydro-1H-pyrazino[1′,2′:4,5]pyrazino[2,3-c][1,8]naphthyridin-5,7-dione] |  |  |  |  | 58 nM | 9 nM | 113 nM | 28100 nM | 3 nM |  | 
15 | C=CC(=O)N1CCN2c3c(c(=O)n(-c4c(C)ccnc4C(C)C)c4nc(-c5c(O)cccc5F)c(Cl)cc34)N(C)C(=O)[C@H]2C1 [Compound Z25, (4aR)-3-acryloyl-11-chloro-10-(2-fluoro-6-hydroxyphenyl)-8-(2-isopropyl-4-methylpyridin-3-yl)-6-methyl-2,3,4,4a,6,8-hexahydro-1H-pyrazino[1′,2′:4,5]pyrazino[2,3-c][1,8]naphthyridin-5,7-dione] |  |  |  |  | 60 nM |  |  | 28300 nM | 4 nM | 8 nM | 51 nM
16 | [2H]C([2H])([2H])N1C(=O)[C@H]2CN(C(=O)C=C)CCN2c2c1c(=O)n(-c1c(C)ccnc1C(C)C)c1nc(-c3c(O)cccc3F)c(Cl)cc21 [Compound Z26, (4aR)-3-acryloyl-11-chloro-10-(2-fluoro-6-hydroxyphenyl)-8-(2-isopropyl-4-methylpyridin-3-yl)-6-(methyl-d3)-2,3,4,4a,6,8-hexahydro-1H-pyrazino[1′,2′:4,5]pyrazino[2,3-c][1,8]naphthyridin-5,7-dione] |  | 2 nM | 12900 nM |  | 34 nM |  |  |  |  | 5 nM | 39 nM
17 | C=CC(=O)N1C[C@@H]2C(=O)N(C)c3c(c4cc(Cl)c(-c5c(O)cccc5F)nc4n(-c4c(C)ccnc4C(C)C)c3=O)N2C[C@H]1C [Compound Z27, (2R,4aR)-3-acryloyl-11-chloro-10-(2-fluoro-6-hydroxyphenyl)-8-(2-isopropyl-4-methylpyridin-3-yl)-2,6-dimethyl-2,3,4,4a,6,8-hexahydro-1H-pyrazino[1′,2′:4,5]pyrazino[2,3-c][1,8]naphthyridin-5,7-dione] |  |  |  |  | 27 nM | 4 nM | 29 nM | 10100 nM | 2 nM |  | 
